Results taken from ChEMBL document CHEMBL5537149, “Design, synthesis, and lead optimization of piperazinyl-pyrimidine analogues as potent small molecules targeting the viral capping machinery of Chikungunya virus” (Eur J Med Chem, 2024).
pEC50: −log10 of the molar value. ≈ marks a conversion by molar mass, not a printed value.

Experiments:
[1] = test system: Chikungunya virus; experiment: Antiviral activity against Chikungunya virus infected in African green monkey Vero cells assessed as reduction in viral induced cell death incubated for 5 days by MTS reagent based absorbance method; assay type: functional, organism-based; conditions: 120 h
[2] = Cytotoxicity against African green monkey Vero cells assessed as reduction in overall metabolic activity incubated for 5 days by MTS reagent based absorbance method; assay type: toxicity, cell-based; conditions: chlorocebus sabaeus, time 5 day
[3] = Selectivity index, ratio of CC50 for cytotoxicity against African green monkey Vero cells to EC50 for antiviral activity against Chikungunya virus infected in African green monkey Vero cells assessed as reduction in viral induced cell death; assay type: toxicity, cell-based; conditions: read-out: Ratio CC50/EC50
[4] = Metabolic stability in human liver microsomes assessed as half-life preincubated for 5 mins followed by NADPH addition and measured upto 60 mins by HPLC-MS/MS analysis; assay type: ADME, Microsome; conditions: time < 65 min
[5] = Aqueous solubility of compound at pH 7.4 by HPLC analysis; assay type: physicochemical

Row | SMILES | pEC50 [1] | CC50 at 120 h [2] | selectivity ratio [3] | half-life [4] | solubility [5]
1 | CCNc1nc(C)cc(NC2CCN(C(=O)c3cc(Cl)cc(Cl)c3)CC2)n1 | 4.85 | 47 µM | 3.4 | > 60 min | 101 µM (≈ 41.2 µg/mL)
2 | CCNc1cc(C)nc(N2CCC3(CC2)CC(=O)c2ccccc2O3)n1 | 4.64 | – | – | – | 100 µM (≈ 35.2 µg/mL)
3 | CCNc1ccnc(N2CCN(S(=O)(=O)c3ccc(Cl)cc3)CC2)n1 | 5.00 | 28 µM | 2.7 | 19 min | 94 µM (≈ 35.9 µg/mL)
4 | CCNc1cc(C)nc(N2CC3CN(C(=O)c4ccc(Cl)cc4)CC3C2)n1 (stereo not given) | 4.92 | > 88 µM | > 7.5 | – | –
5 | O=C(c1ccc(Cl)c(Cl)c1)N1CCN(c2nc(C(F)(F)F)nc3[nH]cnc23)CC1 | 5.02 | – | – | > 60 min | 71 µM (≈ 31.6 µg/mL)
6 | CCNc1nc(C)cc(N2CCC(NC(=O)c3cc(Cl)cc(Cl)c3)CC2)n1 | < 4.60 | > 100 µM | – | – | 100 µM (≈ 40.8 µg/mL)
7 | Cc1cc(N2CCN(C(=O)c3cc(Cl)cc(Cl)c3)CC2)nc(N(C)C)n1 | 5.36 | 67 µM | 15 | > 60 min | 109 µM (≈ 43 µg/mL)
8 | CCNc1nc(C)cc(N2CCC3(CCN(C(=O)c4cc(Cl)cc(Cl)c4)C3)C2)n1 (stereo not given) | 4.96 | – | – | > 60 min | 98 µM (≈ 42.6 µg/mL)
9 | CCNc1cc(C)nc(N2CCC3(CCN(C(=O)c4ccc(Cl)cc4)C3)C2)n1 (stereo not given) | 4.49 | 74 µM | 2.3 | – | –
10 | CCNc1cc(C(F)(F)F)nc(N2CCN(C(=O)c3ccc(Br)cc3)CC2)n1 | < 5.20 | > 25 µM | – | 56 min | 1.2 µM (≈ 0.55 µg/mL)
11 | Cc1nc(Cl)c(N)c(N2CCN(C(=O)c3cc(Cl)cc(Cl)c3)CC2)n1 | 4.49 | – | – | – | 94 µM (≈ 37.7 µg/mL)
12 | CCNc1cc(C)nc(NC2CN(C(=O)c3cc(Cl)cc(Cl)c3)C2)n1 | < 4.00 | – | – | – | 93 µM (≈ 35.4 µg/mL)
13 | Cc1cc(N2CCN(C(=O)c3cccc(Br)c3)CC2)nc(N(C)C)n1 | 4.00 | > 100 µM | > 1 | – | –
14 | Cc1nc(Cl)c(N)c(N2CCN(C(=O)c3ccc(Cl)c(Cl)c3)CC2)n1 | 5.01 | – | – | > 60 min | 118 µM (≈ 47.3 µg/mL)
15 | CCNc1cc(C)nc(N2CC3CCC(C2)N3C(=O)c2ccc(Cl)cc2)n1 | 4.10 | > 88 µM | > 1.11 | – | –
16 | CCNc1nc(C)cc(N2CCCC(NC(=O)c3cc(Cl)cc(Cl)c3)C2)n1 (stereo not given) | < 4.00 | 12 µM | < 0.12 | 44 min | 22 µM (≈ 8.98 µg/mL)
17 | CC(C)Nc1ccnc(N2CCN(S(=O)(=O)c3ccc(F)cc3)CC2)n1 | 5.00 | – | – | 46 min | 100 µM (≈ 37.9 µg/mL)
18 | Nc1nc(N2CCN(C(=O)c3ccc(Cl)c(Cl)c3)CC2)c2nc[nH]c2n1 | < 4.00 | – | – | – | 106 µM (≈ 41.6 µg/mL)
19 | Nc1nc(N2CCN(C(=O)c3ccc(Cl)cc3)CC2)c2nc[nH]c2n1 | < 4.00 | – | – | – | 116 µM (≈ 41.5 µg/mL)
20 | O=C(c1ccc(Cl)c(Cl)c1)N1CCN(c2ncnc3[nH]cnc23)CC1 | 4.18 | – | – | – | 104 µM (≈ 39.2 µg/mL)
21 | O=C(c1ccc(Cl)cc1)N1CCN(c2nc(C(F)(F)F)nc3[nH]cnc23)CC1 | 4.59 | – | – | – | 36 µM (≈ 14.8 µg/mL)

Row | SMILES | pEC50 [1] | CC50 at 120 h [2] | selectivity ratio [3] | half-life [4] | solubility [5]
22 | Nc1nc(N2CCN(C(=O)c3cc(Cl)cc(Cl)c3)CC2)c2nc[nH]c2n1 | < 4.00 | – | – | – | 47 µM (≈ 18.4 µg/mL)
23 | CCNc1cc(C)nc(N2CCN(C(=O)c3ccc(I)cc3)CC2)n1 | 5.54 | > 100 µM | > 34 | > 60 min | 116 µM (≈ 52.4 µg/mL)
24 | Cc1cc(N(C)C)nc(N2CCN(C(=O)c3ccc(Br)cc3)CC2)n1 | 4.89 | 76 µM | 6.02 | 29 min | 114 µM (≈ 46.1 µg/mL)
25 | CCNc1nc(C)cc(N2CCN(C(=O)c3ccc(C)c(C)c3)CC2)n1 | 6.02 | 65 µM | 68 | > 60 min | 118 µM (≈ 41.7 µg/mL)
26 | CCNc1nc(C)cc(N2CCN(C(=O)c3ccc(F)cc3F)CC2)n1 | < 4.00 | > 100 µM | > 1 | – | –
27 | CCNc1nc(C)cc(N2CC(NC(=O)c3cc(Cl)cc(Cl)c3)C2)n1 | < 4.00 | – | – | – | 81 µM (≈ 30.8 µg/mL)
28 | CCNc1cc(N2CCN(S(=O)(=O)c3ccc(F)cc3)CC2)ncn1 | < 3.56 | – | – | – | 94 µM (≈ 34.4 µg/mL)
29 | CCNc1nc(C)cc(N2CCN(C(=O)c3ccc(C)cc3C)CC2)n1 | < 4.00 | > 100 µM | > 1 | – | –
30 | CCNc1cc(C(F)(F)F)nc(N2CCN(C(=O)c3cccc(Br)c3)CC2)n1 | 4.39 | – | – | 17 min | 0.8 µM (≈ 0.367 µg/mL)
31 | CCNc1cc(C)nc(N2CC(NC(=O)c3cc(Cl)cc(Cl)c3)C2)n1 | < 4.06 | – | – | – | 47 µM (≈ 17.9 µg/mL)
32 | CCNc1nc(C)cc(N2CCN(C(=O)c3ccc(Cl)cc3Cl)CC2)n1 | < 4.00 | 47 µM | < 0.47 | – | > 120 µM
33 | CCNc1cc(C)nc(N2CC3CCC(C2)N3C(=O)c2cc(Cl)cc(Cl)c2)n1 | < 4.00 | – | – | – | 97 µM (≈ 40.8 µg/mL)
34 | O=C(c1ccc(Cl)cc1)N1CCN(c2ncnc3[nH]cnc23)CC1 | 4.03 | – | – | – | 114 µM (≈ 39.1 µg/mL)
35 | Cc1cc(N2CCN(S(=O)(=O)c3ccc(F)cc3)CC2)nc(N2CCCC2)n1 | 4.60 | 47 µM | 1.9 | – | > 120 µM
36 | CCNc1nc(C)cc(N2CCC3(CCN(C(=O)c4ccc(Cl)cc4)C3)C2)n1 (stereo not given) | 4.74 | 45 µM | 2.5 | – | –
37 | CCNc1nc(C)cc(NC2CN(C(=O)c3cc(Cl)cc(Cl)c3)C2)n1 | 5.07 | – | – | 37 min | 104 µM (≈ 39.5 µg/mL)
38 | CCNc1cc(C(F)(F)F)nc(N2CCN(C(=O)c3ccc(Cl)c(Cl)c3)CC2)n1 | < 5.20 | > 25 µM | – | 36 min | –
39 | CCNc1cc(C(F)(F)F)nc(N2CCN(C(=O)c3cc(Cl)cc(Cl)c3)CC2)n1 | < 5.20 | > 25 µM | – | 18 min | 3.5 µM (≈ 1.57 µg/mL)
40 | CCNc1nc(C)cc(N2CC3CN(C(=O)c4cc(Cl)cc(Cl)c4)CC3C2)n1 (stereo not given) | 4.72 | – | – | > 60 min | 109 µM (≈ 45.8 µg/mL)
41 | CCNc1nc(C)cc(N2CC3CCC(C2)N3C(=O)c2ccc(Cl)cc2)n1 | 4.77 | 84 µM | 5 | – | –
42 | CCNc1nc(C)cc(N2CC3CN(C(=O)c4ccc(Cl)cc4)CC3C2)n1 (stereo not given) | 5.49 | 72 µM | 23 | – | –

Row | SMILES | pEC50 [1] | CC50 at 120 h [2] | selectivity ratio [3] | half-life [4] | solubility [5]
43 | Cc1nc(N2CCN(C(=O)c3ccc(Cl)cc3)CC2)c2nc[nH]c2n1 | 4.01 | – | – | – | 84 µM (≈ 30 µg/mL)
44 | Cc1cc(N(C)C)nc(N2CCN(C(=O)c3cc(Cl)cc(Cl)c3)CC2)n1 | < 4.00 | > 100 µM | – | – | 95 µM (≈ 37.5 µg/mL)
45 | CCNc1cc(C)nc(N2CCN(C(=O)C3CCCCC3)CC2)n1 | 4.15 | 147 µM | 2.1 | – | 119 µM (≈ 39.4 µg/mL)
46 | CCNc1cc(C)nc(N2CCCC(NC(=O)c3cc(Cl)cc(Cl)c3)C2)n1 (stereo not given) | < 4.60 | 49 µM | < 1.95 | – | 31 µM (≈ 12.7 µg/mL)
47 | Cc1nc(N2CCN(C(=O)c3cc(Cl)cc(Cl)c3)CC2)c2nc[nH]c2n1 | < 4.00 | – | – | – | 92 µM (≈ 36 µg/mL)
48 | O=C(c1cc(Cl)cc(Cl)c1)N1CCN(c2nc(Cl)nc3[nH]cnc23)CC1 | 4.74 | – | – | > 60 min | 66 µM (≈ 27.2 µg/mL)
49 | CCNc1cc(C)nc(N2CC3CN(C(=O)c4cc(Cl)cc(Cl)c4)CC3C2)n1 (stereo not given) | 4.64 | – | – | – | 108 µM (≈ 45.4 µg/mL)
50 | CCNc1cc(C)nc(N2CCN(C(=O)c3cc(Cl)cc(Cl)c3)CC2)n1 | 4.17 | > 100 µM | > 1.5 | – | 11 µM (≈ 4.34 µg/mL)
51 | CCNc1nc(N2CCN(C(=O)c3cc(Cl)cc(Cl)c3)CC2)cc(C(F)(F)F)n1 | < 4.90 | > 50 µM | – | 29 min | 2 µM (≈ 0.897 µg/mL)
52 | CCNc1cc(C)nc(N2CCC(NC(=O)c3cc(Cl)cc(Cl)c3)CC2)n1 | < 4.00 | 48 µM | < 0.48 | – | 52 µM (≈ 21.2 µg/mL)
53 | CCNc1cc(C)nc(N2CCC3(CCN(C(=O)c4cc(Cl)cc(Cl)c4)C3)C2)n1 (stereo not given) | 4.55 | – | – | – | 108 µM (≈ 46.9 µg/mL)
54 | CCNc1nc(C)cc(N2CC3CCC(C2)N3C(=O)c2cc(Cl)cc(Cl)c2)n1 | 4.85 | – | – | > 60 min | 111 µM (≈ 46.7 µg/mL)
55 | O=C(c1cc(Cl)cc(Cl)c1)N1CCN(c2ncnc3[nH]cnc23)CC1 | 4.49 | – | – | – | 112 µM (≈ 42.3 µg/mL)
56 | Cc1nc(Cl)c(N)c(N2CCN(C(=O)c3ccc(Cl)cc3)CC2)n1 | < 4.06 | > 88 µM | > 1 | – | –
57 | CCNc1nc(N2CCN(C(=O)c3ccc(Cl)c(Cl)c3)CC2)cc(C(F)(F)F)n1 | < 4.00 | > 100 µM | – | – | –
58 | CCNc1nc(C)cc(N2CCC3(CC2)CC(=O)c2ccccc2O3)n1 | 5.38 | – | – | > 60 min | 98 µM (≈ 34.5 µg/mL)
59 | O=C(c1cc(Cl)cc(Cl)c1)N1CCN(c2nc(C(F)(F)F)nc3[nH]cnc23)CC1 | 4.11 | – | – | – | 73 µM (≈ 32.5 µg/mL)
60 | CCNc1nc(N2CCN(C(=O)c3ccc(Br)cc3)CC2)cc(C(F)(F)F)n1 | < 4.00 | > 100 µM | – | – | 33 µM (≈ 15.1 µg/mL)
61 | CCNc1nccc(N2CCN(C(=O)c3ccc(F)cc3)CC2)n1 | 3.67 | > 304 µM | > 1.4 | – | > 120 µM
62 | CCNc1cc(C)nc(N2CCN(S(=O)(=O)c3cccs3)CC2)n1 | 3.99 | 180 µM | 1.8 | – | 68 µM (≈ 25 µg/mL)
63 | CCNc1cc(C)nc(N2CCN(S(=O)(=O)c3ccc(Cl)nc3)CC2)n1 | 3.92 | 97 µM | 0.8 | – | 115 µM (≈ 45.6 µg/mL)
